Laboratory results as given in US20200179380A1, “SOLUTE AND SOLUTE MIXTURE, AS WELL AS A COMPOSITION COMPRISING AT LEAST ONE SOLUTE, FOR USE IN THE PREVENTION OR TREATMENT OF COSMETIC OR PATHOLOGIC EFFLORESCENCES CAUSED BY AIRBORNE PARTICLES” (bitop AG, priority 2014, published 2020).
Where “and” joins values, the source holds several entries; their conditions need not be identical. Equal entries are not always repeated. Where two headings read alike, the source gives them in different places.

Legend:
Assay type in all cases: cell-based, human
[1] = system: POMC gene; experiment: POMC gene expression (real-time PCR, relative to 18s-rRNA) in keratinocytes exposed to model particles; settings: for inhibition at 2000 µM / activity at 2000 µM: Homo sapiens, Keratinocyte, 2 mM S-ectoine; for activity at 2000 µM: read-out: POMC Remaining activity %; for POMC expression ±S-ectoine mean ± SD: 24 h pretreatment with 2 mM S-ectoine, untreated = 1; for POMC expression induced by model particles after ectoine pretreatment (in words): Printex90, Huber 990, SRM1650, SRM2975, pretreatment with 2 mM ectoine for 24 hours
[2] = system: MMP1 gene; experiment: MMP1 gene expression (real-time PCR, relative to 18s-rRNA) in keratinocytes exposed to model particles; settings: for inhibition at 2000 µM / activity at 2000 µM: Homo sapiens, Keratinocyte, 2 mM S-ectoine; for activity at 2000 µM: read-out: MMP1 Remaining activity %; for MMP1 expression ±S-ectoine mean ± SD: 24 h pretreatment with 2 mM S-ectoine, untreated = 1
Description: The model particles were suspended in phosphate buffered saline solution and treated with ultrasound for 1 minute ([…]90, SRM1650 and SRM2975) or 90 seconds (Huber990). Subsequently, addition to keratinocytes was done immediately. […] The incubation time of keratinocytes under the influence of model particles was 24 hours. Human epidermal keratinocytes were taken from healthy patients during abdominoplasty or breast reduction with the consent of the patients. The tissue donors originate in Asia or were of Caucasian origin. The keratinocytes isolated from the tissues were cultivated in Keratinocyte-SFM (Gibco®, Life Technologies GmbH, Darmstadt, Germany). The medium was enriched by 5 mg/L of human recombinant epidermal growth factor (EGF), 50 mg/L pituitarium which is an extract from pituitary gland from bovine (Bovine Pituitary Extract, BPE), 1% L-glutamine, 1% streptomycin/amphotericin B (Invitrogen, Karlsruhe, Germany). The cultivation was done at humid atmosphere in the presence of 5% CO2. Subconfluent keratinocytes were transferred to sample vessels having 12 sample wells (12-well plates), and were each cultivated in the sample wells. Treatment with the model particles was also done in the sample wells. […] After an incubation time of 24 hours in the presence of the model particles, RNA was isolated from the keratinocytes and relative RNA content was determined. The expression of proinflammatory gene ICAM-1, POMC gene encoding for proopiomelanocortin, MMP1 gene encoding for a human collagenase, and Cyp1a1 encoding for a phase-I-enzyme of Cytochrome P450 superfamily was investigated as a marker for the influence of the model particles on skin condition. The collagenase encoded by MMP1 gene ranks among the matrix metalloproteases and cleaves the peptide bond between proline and other amino acids of collagen I, II, III, VII and X, thereby degrading the collagen. Collagenases and, in particular, the MMP1 collagenase are involved in tissue remodeling and biological processes of the skin, such ach morphogenesis or tumor growth (benign or malign tumor formation). Thus, increased expression of MMP1 gene is a proof for increased activity of the skin cells, in particular keratinocytes. Increased MMP1 gene expression can be an indication of excessive cell growth and, thereby, of benign or malign carcinogenesis. The total RNA content was determined according to […] et al. ([…]-Beck […], Brenden H, […]. “Bioactive molecules from the Blue Lagoon: in vitro and in vivo assessment of silica mud and microalgae extracts for their effects on skin barrier function and prevention of skin ageing”. Exp Dermatol 2008 17:771.). For this purpose, the total RNA was isolated using RNeasy Total RNA Kits (Qiagen, Hilden; Germany). The RNA concentration was photometrically determined at 260/280 nm (Biophotometer, Eppendorf, Hamburg, Germany). Aliquots of total RNA of 100 ng were used for first strand cDNA synthesis using Superscript® III for the transcription step using random primers (Invitrogen, Karlsruhe, Germany). […] For the total RNA content a specific primer for the proof of 18s rRNA was designed. Independent experiments were performed with a triple determination in each case, and the mean was determined. PCR reaction was done using CFX384 TouchTM Real-Time PCR Detection System (Bio-Rad, München, Germany). In order to fluorescent marking SybrGreen-Mix was used (Thermo Fisher Scientific, St. Leon-Rot, Germany). For each experiment three samples, respectively, were determined in duplicate, and the mean was determined. The PCR protocol comprised 46 cycles, each cycle 15 minutes at 94° C. (activation of heat-activating taq polymerase) 10 seconds at 95° C. (denaturation), 20 seconds at 55° C. (annealing), 20 seconds at 72° C. (elongation). Likewise, for comparison of relative expression the expression of untreated keratinocytes was investigated. […] Methods 25: 402-408). […] The data underlying the statistical analysis are not shown here.

[3] = system: Cyp1a1 gene; experiment: Cyp1a1 gene expression (real-time PCR, relative to 18s-rRNA) in keratinocytes exposed to model particles; settings: for inhibition at 2000 µM / activity at 2000 µM: Homo sapiens, Keratinocyte, 2 mM S-ectoine; for activity at 2000 µM: read-out: Cyp1a1 Remaining activity %
Description: The model particles were suspended in phosphate buffered saline solution and treated with ultrasound for 1 minute ([…]90, SRM1650 and SRM2975) or 90 seconds (Huber990). Subsequently, addition to keratinocytes was done immediately. […] The incubation time of keratinocytes under the influence of model particles was 24 hours. Human epidermal keratinocytes were taken from healthy patients during abdominoplasty or breast reduction with the consent of the patients. The tissue donors originate in Asia or were of Caucasian origin. The keratinocytes isolated from the tissues were cultivated in Keratinocyte-SFM (Gibco®, Life Technologies GmbH, Darmstadt, Germany). The medium was enriched by 5 mg/L of human recombinant epidermal growth factor (EGF), 50 mg/L pituitarium which is an extract from pituitary gland from bovine (Bovine Pituitary Extract, BPE), 1% L-glutamine, 1% streptomycin/amphotericin B (Invitrogen, Karlsruhe, Germany). The cultivation was done at humid atmosphere in the presence of 5% CO2. Subconfluent keratinocytes were transferred to sample vessels having 12 sample wells (12-well plates), and were each cultivated in the sample wells. Treatment with the model particles was also done in the sample wells. […] After an incubation time of 24 hours in the presence of the model particles, RNA was isolated from the keratinocytes and relative RNA content was determined. The expression of proinflammatory gene ICAM-1, POMC gene encoding for proopiomelanocortin, MMP1 gene encoding for a human collagenase, and Cyp1a1 encoding for a phase-I-enzyme of Cytochrome P450 superfamily was investigated as a marker for the influence of the model particles on skin condition. The enzyme encoded by Cyp1a1 gene ranks among the group of phase-I-P450-Cytochrome enzymes and mediates metabolism of drugs, foreign substances and environmental toxins. The Cy1a1 enzyme is a monooxygenase and responsible for metabolizing the afore-mentioned compounds. The protein is encoded in endoplasmic reticulum and its expression can severely be induced by polycyclic aromatic hydrocarbons. The enzyme encoded by Cyp1a1 metabolizes environmental noxae, in particular polycyclic aromatic hydrocarbons, into cancer-causing intermediates. Cyp1a2 is a family member related to Cyp1a1. Increased Cyp1a1 expression, and, in particular, increased Cyp1a2 expression, thus proves detoxification reaction. The total RNA content was determined according to […] et al. ([…]-Beck […], Brenden H, […]. “Bioactive molecules from the Blue Lagoon: in vitro and in vivo assessment of silica mud and microalgae extracts for their effects on skin barrier function and prevention of skin ageing”. Exp Dermatol 2008 17:771.). For this purpose, the total RNA was isolated using RNeasy Total RNA Kits (Qiagen, Hilden; Germany). The RNA concentration was photometrically determined at 260/280 nm (Biophotometer, Eppendorf, Hamburg, Germany). Aliquots of total RNA of 100 ng were used for first strand cDNA synthesis using Superscript® III for the transcription step using random primers (Invitrogen, Karlsruhe, Germany). […] For the total RNA content a specific primer for the proof of 18s rRNA was designed. Independent experiments were performed with a triple determination in each case, and the mean was determined. PCR reaction was done using CFX384 TouchTM Real-Time PCR Detection System (Bio-Rad, München, Germany). In order to fluorescent marking SybrGreen-Mix was used (Thermo Fisher Scientific, St. Leon-Rot, Germany). For each experiment three samples, respectively, were determined in duplicate, and the mean was determined. […] (activation of heat-activating taq polymerase) 10 seconds at 95° C. (denaturation), 20 seconds at 55° C. (annealing), 20 seconds at 72° C. (elongation). Likewise, for comparison of relative expression the expression of untreated keratinocytes was investigated. […] Methods 25: 402-408). […] The data underlying the statistical analysis are not shown here.

[4] = Printex90, Huber 990, SRM1650, SRM2975, pretreatment with 2 mM ectoine

For `CC1=N[C@H](C(=O)O)CCN1` [S-ectoine, (S)-1,4,5,6-tetrahydro-2-methyl-4-pyrimidine carboxylic acid], the inhibition at 2000 µM ([1]; Huber990 particles) was 100%, the activity at 2000 µM ([1]; Huber990 particles) was 0% and the inhibition at 2000 µM ([1]; Printex90 particles) was 100%. The activity at 2000 µM ([1]; Printex90 particles) was 0%, the inhibition at 2000 µM ([1]; SRM1650 particles) was 99% and the activity at 2000 µM ([1]; SRM1650 particles) was 1%. For the same compound, the inhibition at 2000 µM ([1]; SRM2975 particles) was 100%, the activity at 2000 µM ([1]; SRM2975 particles) was 0% and the “POMC expression ±S-ectoine mean ± SD” value ([1]; Huber990 particles) was 0.83 ± 0.04+. The “POMC expression induced by model particles after ectoine pretreatment (in words)” value [1] was “significant inhibition”, the “POMC expression induced by model particles after ectoine pretreatment (in words)” value ([1]; listed as ectoine) was “inhibited” and the “POMC expression ±S-ectoine mean ± SD” value ([1]; Printex90 particles) was 0.88 ± 0.05+. The “POMC expression ±S-ectoine mean ± SD” value ([1]; SRM1650 particles) was 1.01 ± 0.05+, the “POMC expression ±S-ectoine mean ± SD” value ([1]; SRM2975 particles) was 0.99 ± 0.08+ and the inhibition at 2000 µM ([2]; Huber990 particles) was 42%. The activity at 2000 µM ([2]; Huber990 particles) was 58%, the inhibition at 2000 µM ([2]; SRM1650 particles) was 26% and the activity at 2000 µM ([2]; SRM1650 particles) was 74%. For the same compound, the “MMP1 expression induced by model particles after ectoine pretreatment (in words)” value [2, 4] was “inhibited”, the “MMP1 expression ±S-ectoine mean ± SD” value ([2]; Printex90 particles) was 0.82 ± 0.10 and the “MMP1 expression ±S-ectoine mean ± SD” value ([2]; SRM2975 particles) was 1.28 ± 0.22. For the same compound, the inhibition at 2000 µM ([3]; Huber990 particles) was 57%, the activity at 2000 µM ([3]; Huber990 particles) was 43% and the inhibition at 2000 µM ([3]; Printex90 particles) was 70%. The activity at 2000 µM ([3]; Printex90 particles) was 30%, the inhibition at 2000 µM ([3]; SRM1650 particles) was 46% and the activity at 2000 µM ([3]; SRM1650 particles) was 54%. The inhibition at 2000 µM ([3]; SRM2975 particles) was 41%, the activity at 2000 µM ([3]; SRM2975 particles) was 59% and the “Cyp1a1 expression induced by model particles after ectoine pretreatment (in words)” value [3, 4] was “inhibited”. For the same compound, the “Cyp1a1 expression ±S-ectoine mean ± SD” value ([3]; Printex90 particles, 24 h pretreatment with 2 mM S-ectoine, untreated = 1) was 1.19 and 1.19 ± 0.29.
